Experiments:
EGFR wt. = EGFR wt. (Homo sapiens (Human), UniProt P00533); assay: HTRF enzyme assay, wild-type EGFR; type: biochemical; conditions: recombinant enzyme
Experimental: (§1) The measurement of an activity on wild-type and EGFR mutation enzyme of the compound of the present invention was experimented by utilizing the HTRF system sold by Cisbio, as follow.
(§2) The composition of the assay buffer used in the activity measurement was 50 mM Tris-HCl pH 7.5, 100 mM NaCl, 7.5 mM MgCl2, 3 mM KCl, 0.01% Tween 20, 0.1% BSA, 1 mM DTT. The enzymatic reaction was carried out hereto by using the peptide substrate labeled with ATP of […] concentration and biotin of […] concentration. The analysis of an EGFR activity inhibitory effect of the compound was carried out in accordance with the analysis reaction recipe below.
(§3) Component 1: […] of EGFR wild-type or mutation enzyme
(§4) Component 2: […] of compound solution
(§5) Component 3: […] of peptide labeled with ATP and biotin
(§6) The enzymatic reaction was initiated by mixing Component 1 and Component 2 first, and then, adding component 3. After the reaction for 2 hours at 37° C., […] of a measurement solution consisting of streptavidin-XL665 provided by Cisbio and anti-phosphotyrosine antibody labeled with europium was added to the enzymatic reaction solution and reacted for 1 hour at ambient temperature. […] The measurement values measured at the seven concentrations of the compound were analyzed by using the Prism program (version 5.01, Graphpad Software, Inc.), and IC50 value of the compound was calculated, which is an inhibitory ability indicator.

Ba/F3 EGFR wt. cell line = assay: CellTiter-Glo cell viability, Ba/F3 EGFR wild-type; type: cell-based; conditions: 72 hours
Experimental: (§7) The measurement of an activity on wild-type and mutation Ba/F3 EGFR cell line of the compound of the present invention was experimented by utilizing the CellTiter-Glo system sold by Promega, as follow. The CellTiter-Glo assay is a method for measuring the ATP present in cells in cell culture conditions to determine the cell viability.
(§8) The analysis of an EGFR inhibitory ability effect of the compound was carried out in accordance with the analysis reaction recipe below.
(§9) After the reaction of 72 hours, the plate treated with the compound was allowed to stand for 30 minutes at ambient temperature, and then, was further treated with 100 μl of the reagent, and was shaked for 10 minutes at ambient temperature. […] The measurement values measured at the eight concentrations of the compound were analyzed by using the Prism program (version 5.01, Graphpad Software, Inc.), and IC50 value of the compound was calculated, which is an inhibitory ability indicator.

[1] = test system: Ba/F3 EGFR del19 cell line; assay: CellTiter-Glo cell viability, Ba/F3 EGFR del19; type: cell-based; conditions: 72 hours
Experimental: as §7, §8, §9

[2] = test system: Ba/F3 EGFR del19/T790M/C797S cell line; assay: CellTiter-Glo cell viability, Ba/F3 EGFR del19/T790M/C797S; type: cell-based; conditions: CellTiter-Glo, 72 hours, read-out: Ba/F3 EGFR del19/T790M/C797S IC50
Experimental: as §7, §8
(§10) After the reaction of 72 hours, the plate treated with the compound was allowed to stand for 30 minutes at ambient temperature, and then, was further treated with 100 μl of the reagent, and was shaked for 10 minutes at ambient temperature.

EGFR del19/T790M/C797S = EGFR del19/T790M/C797S (Homo sapiens, UniProt P00533, C797S/DEL746-750/T790M); assay: HTRF enzyme assay, EGFR del19/T790M/C797S; type: biochemical; conditions: HTRF, recombinant enzyme; read-out: EGFR del19/T790M/C797S IC50
Experimental: as §1, §2, §3, §4, §5, §6

EGFR del19 = EGFR del19 (Homo sapiens (Human), UniProt P00533, DEL746-750); assay: HTRF enzyme assay, EGFR del19; type: biochemical; conditions: recombinant enzyme
Experimental: as §1, §2, §3, §4, §5, §6

[3] = test system: Ba/F3 EGFR del19/T790M cell line; assay: CellTiter-Glo cell viability, Ba/F3 EGFR del19/T790M; type: cell-based; conditions: CellTiter-Glo, 72 hours, read-out: Ba/F3 EGFR del19/T790M IC50
Experimental: as §7, §8, §10

EGFR del19/T790M = EGFR del19/T790M (Homo sapiens (Human), UniProt P00533, DEL746-750/T790M); assay: HTRF enzyme assay, EGFR del19/T790M; type: biochemical; conditions: recombinant enzyme
Experimental: as §1, §2, §3, §4, §5, §6

Chain of EGFR del19/T790M/C797S (P00533 with tags, fused parts or gaps C797S/DEL746-750/T790M limits assumed): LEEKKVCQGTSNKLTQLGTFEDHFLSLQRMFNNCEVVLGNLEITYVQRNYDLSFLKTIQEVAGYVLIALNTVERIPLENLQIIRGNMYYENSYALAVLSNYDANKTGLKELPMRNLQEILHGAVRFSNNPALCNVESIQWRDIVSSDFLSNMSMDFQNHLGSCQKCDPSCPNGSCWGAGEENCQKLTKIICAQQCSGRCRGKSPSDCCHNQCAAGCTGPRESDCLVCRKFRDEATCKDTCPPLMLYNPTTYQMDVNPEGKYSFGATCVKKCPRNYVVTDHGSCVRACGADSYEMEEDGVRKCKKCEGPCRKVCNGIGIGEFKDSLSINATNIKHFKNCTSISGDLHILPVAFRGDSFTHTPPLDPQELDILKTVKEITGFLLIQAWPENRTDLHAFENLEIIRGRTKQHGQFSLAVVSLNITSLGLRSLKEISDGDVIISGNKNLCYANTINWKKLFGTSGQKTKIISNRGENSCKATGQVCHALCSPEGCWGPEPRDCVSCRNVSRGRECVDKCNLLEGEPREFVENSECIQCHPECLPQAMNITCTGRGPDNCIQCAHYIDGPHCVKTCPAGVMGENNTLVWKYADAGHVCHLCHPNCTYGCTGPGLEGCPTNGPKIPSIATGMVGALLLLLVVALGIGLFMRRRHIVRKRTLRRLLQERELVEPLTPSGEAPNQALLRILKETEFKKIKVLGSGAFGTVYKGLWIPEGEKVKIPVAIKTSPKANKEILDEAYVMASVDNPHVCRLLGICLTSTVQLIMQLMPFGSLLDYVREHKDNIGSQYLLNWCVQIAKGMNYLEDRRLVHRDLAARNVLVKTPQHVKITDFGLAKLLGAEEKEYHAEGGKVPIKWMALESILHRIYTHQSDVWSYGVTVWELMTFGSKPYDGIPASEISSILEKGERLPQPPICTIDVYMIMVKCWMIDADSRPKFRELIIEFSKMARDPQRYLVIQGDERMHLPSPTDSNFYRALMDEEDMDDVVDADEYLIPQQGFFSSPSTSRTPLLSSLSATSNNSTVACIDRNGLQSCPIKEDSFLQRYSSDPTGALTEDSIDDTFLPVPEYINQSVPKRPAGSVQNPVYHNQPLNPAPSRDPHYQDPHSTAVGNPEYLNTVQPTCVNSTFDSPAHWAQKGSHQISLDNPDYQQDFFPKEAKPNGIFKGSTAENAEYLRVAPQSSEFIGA
Chain of EGFR del19/T790M (P00533 other isoform, or with tags, fused parts or gaps T790M/del 1-668/del 746-750 limits assumed): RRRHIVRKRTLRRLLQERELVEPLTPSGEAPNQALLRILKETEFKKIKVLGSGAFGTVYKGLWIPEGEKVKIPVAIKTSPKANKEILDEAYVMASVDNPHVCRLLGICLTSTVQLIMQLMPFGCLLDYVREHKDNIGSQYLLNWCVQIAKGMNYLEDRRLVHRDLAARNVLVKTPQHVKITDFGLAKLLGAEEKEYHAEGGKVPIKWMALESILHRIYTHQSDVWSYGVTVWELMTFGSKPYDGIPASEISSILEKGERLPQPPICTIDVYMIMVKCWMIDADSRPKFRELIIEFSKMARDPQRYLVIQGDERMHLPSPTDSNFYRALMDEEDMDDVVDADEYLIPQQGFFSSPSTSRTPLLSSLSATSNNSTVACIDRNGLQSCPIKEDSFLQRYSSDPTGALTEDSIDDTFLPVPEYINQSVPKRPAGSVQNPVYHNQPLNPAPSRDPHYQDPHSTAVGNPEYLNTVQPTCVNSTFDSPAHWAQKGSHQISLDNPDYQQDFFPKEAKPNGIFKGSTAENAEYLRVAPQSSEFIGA
Chain of EGFR wt. (P00533 25-1210): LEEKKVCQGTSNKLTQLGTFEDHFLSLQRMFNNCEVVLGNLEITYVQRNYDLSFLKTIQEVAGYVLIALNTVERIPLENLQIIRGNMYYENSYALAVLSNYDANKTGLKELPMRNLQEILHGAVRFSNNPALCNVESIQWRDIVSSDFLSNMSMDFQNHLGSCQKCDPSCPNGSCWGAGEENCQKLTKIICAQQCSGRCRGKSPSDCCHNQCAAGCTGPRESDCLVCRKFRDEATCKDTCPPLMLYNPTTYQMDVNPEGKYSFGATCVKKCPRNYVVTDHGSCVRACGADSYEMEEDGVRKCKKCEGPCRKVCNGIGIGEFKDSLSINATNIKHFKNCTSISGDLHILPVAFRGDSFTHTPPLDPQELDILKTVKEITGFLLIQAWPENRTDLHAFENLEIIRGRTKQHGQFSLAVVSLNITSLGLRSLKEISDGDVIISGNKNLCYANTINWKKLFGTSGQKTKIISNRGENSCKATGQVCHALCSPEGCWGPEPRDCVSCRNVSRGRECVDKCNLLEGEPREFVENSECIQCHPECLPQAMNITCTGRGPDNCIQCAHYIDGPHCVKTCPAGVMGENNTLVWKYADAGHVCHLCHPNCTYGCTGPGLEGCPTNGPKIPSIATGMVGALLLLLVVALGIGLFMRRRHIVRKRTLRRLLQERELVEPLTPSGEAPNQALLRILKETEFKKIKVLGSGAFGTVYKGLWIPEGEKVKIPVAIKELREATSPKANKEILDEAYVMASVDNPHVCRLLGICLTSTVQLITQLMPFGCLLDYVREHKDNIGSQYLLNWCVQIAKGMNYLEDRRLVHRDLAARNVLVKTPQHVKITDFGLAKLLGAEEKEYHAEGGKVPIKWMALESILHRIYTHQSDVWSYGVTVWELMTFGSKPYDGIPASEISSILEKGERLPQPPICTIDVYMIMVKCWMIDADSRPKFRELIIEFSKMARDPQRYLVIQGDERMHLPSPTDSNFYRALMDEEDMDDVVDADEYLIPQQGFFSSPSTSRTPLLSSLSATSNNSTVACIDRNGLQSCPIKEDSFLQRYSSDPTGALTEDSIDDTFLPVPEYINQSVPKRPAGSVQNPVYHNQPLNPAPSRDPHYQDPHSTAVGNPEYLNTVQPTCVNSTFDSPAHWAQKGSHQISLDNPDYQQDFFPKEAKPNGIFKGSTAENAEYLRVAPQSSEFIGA
Chain of EGFR del19 (P00533 other isoform, or with tags, fused parts or gaps del 1-668/del 746-750 limits assumed): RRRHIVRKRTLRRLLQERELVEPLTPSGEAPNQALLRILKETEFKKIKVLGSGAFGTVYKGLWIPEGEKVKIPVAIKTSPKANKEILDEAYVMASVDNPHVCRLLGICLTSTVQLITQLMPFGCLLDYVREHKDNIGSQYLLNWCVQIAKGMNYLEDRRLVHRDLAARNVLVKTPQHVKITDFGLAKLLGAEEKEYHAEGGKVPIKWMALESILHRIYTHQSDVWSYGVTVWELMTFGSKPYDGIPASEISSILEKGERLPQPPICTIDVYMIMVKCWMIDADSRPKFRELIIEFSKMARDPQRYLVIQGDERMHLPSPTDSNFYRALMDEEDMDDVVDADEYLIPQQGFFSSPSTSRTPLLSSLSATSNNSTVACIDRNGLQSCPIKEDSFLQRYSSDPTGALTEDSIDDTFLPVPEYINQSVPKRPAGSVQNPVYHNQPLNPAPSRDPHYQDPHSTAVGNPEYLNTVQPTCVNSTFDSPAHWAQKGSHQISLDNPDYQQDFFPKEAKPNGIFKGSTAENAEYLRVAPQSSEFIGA

Compound	IC50 (EGFR wt.)	IC50 (Ba/F3 EGFR wt. cell line)	IC50 [1]	IC50 [2]	IC50 (EGFR del19/T790M/C797S)	IC50 (EGFR del19)	IC50 [3]	IC50 (EGFR del19/T790M)
COc1cc(N2CCNCC2)ccc1Nc1ncc(Cl)c(Nc2ccccc2NS(N)(=O)=O)n1 [Example 29, 4-(4-((5-chloro-4-((2-(sulfamoylamino)phenyl)amino)pyrimidin-2-yl)amino)-3-methoxyphenyl)piperazine]	1200 nM	2800 nM	1900 nM	2900 nM	7 nM	5 nM	2100 nM	4 nM
COc1cc(C2CCNCC2)ccc1Nc1ncc(Br)c(Nc2ccccc2NS(N)(=O)=O)n1 [Example 7, 4-(4-((5-bromo-4-((2-(sulfamoylamino)phenyl)amino)pyrimidin-2-yl)amino)-3-methoxyphenyl)piperidine]	> 10000 nM	3400 nM	470 nM	3300 nM	2 nM	79 nM	1600 nM	38 nM
COc1cc(N2CCC(N3CCN(C(C)=O)CC3)CC2)ccc1Nc1ncc(Cl)c(Nc2ccccc2NS(C)(=O)=O)n1 [Example 19, N-(2-((2-((4-(4-(4-acetylpiperazin-1-yl)piperidin-1-yl)-2-methoxyphenyl)amino)-5-chloropyrimidin-4-yl)amino)phenyl)methanesulfonamide]	700 nM	3100 nM	1100 nM	970 nM	42 nM	0.7 nM	660 nM	69 nM
COc1cc(N2CCNCC2)ccc1Nc1ncc(Br)c(Nc2ccccc2NS(N)(=O)=O)n1 [Example 30, 4-(4-((5-bromo-4-((2-(sulfamoylamino)phenyl)amino)pyrimidin-2-yl)amino)-3-methoxyphenyl)piperazine]	1800 nM	5400 nM	680 nM	2700 nM	3 nM	24 nM	850 nM	34 nM
COc1cc(N2CCN(C)CC2)ccc1Nc1ncc(Cl)c(Nc2ccccc2NS(C)(=O)=O)n1 [Example 28, N-(2-((5-chloro-2-((2-methoxy-4-(4-methylpiperazin-1-yl)phenyl)amino)pyrimidin-4-yl)amino)phenyl)methanesulfonamide]	640 nM	1400 nM	1400 nM	1700 nM	9 nM	0.9 nM	690 nM	27 nM
COc1cc(N2CCOCC2)ccc1Nc1ncc(Cl)c(Nc2ccccc2NS(C)(=O)=O)n1 [Example 32, N-(2-((5-chloro-2-((2-methoxy-4-morpholinophenyl)amino)pyrimidin-4-yl)amino)phenyl)methanesulfonamide]	1300 nM	8000 nM	1900 nM	3300 nM	14 nM	4 nM	1300 nM	160 nM
COc1cc(C2CCN(C3CCNCC3)CC2)ccc1Nc1ncc(Cl)c(Nc2ccccc2NS(C)(=O)=O)n1 [Example 16, N-(2-((2-((4-([1,4′-bipiperidin]-4-yl)-2-methoxyphenyl)amino)-5-chloropyrimidin-4-yl)amino)phenyl)methanesulfonamide]	5400 nM	> 10000 nM	> 10000 nM	> 10000 nM	23 nM	44 nM	2300 nM	340 nM
COc1cc(C2CCNCC2)ccc1Nc1ncc(Cl)c(Nc2ccccc2NS(N)(=O)=O)n1 [Example 6, 4-(4-((5-chloro-4-((2-(sulfamoylamino)phenyl)amino)pyrimidin-2-yl)amino)-3-methoxyphenyl)piperidine]	390 nM	> 15000 nM	6400 nM	5800 nM	11 nM	26 nM	9000 nM	10 nM
COc1cc(N2CCN(C3CCN(C)CC3)CC2)ccc1Nc1ncc(Cl)c(Nc2ccccc2NS(C)(=O)=O)n1 [Example 25, N-(2-((5-chloro-2-((2-methoxy-4-(4-(1-methylpiperidin-4-yl)piperazin-1-yl)phenyl)amino)pyrimidin-4-yl)amino)phenyl)methanesulfonamide]	300 nM	340 nM	210 nM	27 nM	9 nM	0.2 nM	780 nM	18 nM
COc1cc(C2CCN(C3CCN(C)CC3)CC2)ccc1Nc1ncc(Cl)c(Nc2ccccc2NS(C)(=O)=O)n1 [Example 17, N-(2-((5-chloro-2-((2-methoxy-4-(1′-methyl-[1,4′-bipiperidin]-4-yl)phenyl)amino)pyrimidin-4-yl)amino)phenyl)methanesulfonamide]	600 nM	2100 nM	2200 nM	680 nM	12 nM	4 nM	1700 nM	78 nM
COc1cc(C2CCN(C3CCN(CCO)CC3)CC2)ccc1Nc1ncc(Cl)c(Nc2ccccc2NS(C)(=O)=O)n1 [Example 14, N-(2-((5-chloro-2-((4-(1′-(2-hydroxyethyl)-[1,4′-bipiperidin]-4-yl)-2-methoxyphenyl)amino)pyrimidin-4-yl)amino)phenyl)methanesulfonamide]	1400 nM	750 nM	500 nM	110 nM	34 nM	6 nM	540 nM	95 nM

From US11253516B2, “N2,N4-diphenylpyrimidine-2,4-diamine derivative, method for preparing same, and pharmaceutical composition containing same as active ingredient for prevention or treatment of cancer” (Korea Research Institute of Chemical Technology, priority 2017, dated 2022)
